This passage reports Activity and inhibition in vivo results from ChEMBL document CHEMBL5696441 (Nat Chem Biol, 2011).

The test system of assay [1] is Mus musculus. Put plainly: In vivo anti-inflammatory activity in Gal/LPS induced mouse assessed as TNF-alpha release at 3 mg/kg, po administered for 1 hrs. It counts as functional.
For assay [2], the target named is Serine/threonine-protein kinase PLK3 (Homo sapiens) (UniProt Q9H4B4). Put plainly: Inhibition of human PLK3 assessed as residual activity at 1 uM using casein as substrate in presence of 33P-ATP by ProQinase assay relative to control.
The target in assay [3] is Citron Rho-interacting kinase (Homo sapiens) (UniProt O14578). Put plainly: Inhibition of CIT (unknown origin) assessed as remaining activity at 1 uM by Kinome scan method relative to control.
In assay [4] the target is Glycogen synthase kinase-3 alpha (Homo sapiens) (UniProt P49840). Put plainly: Inhibition of human GSK3alpha assessed as residual activity at 1 uM using SUPT5 754-837 as substrate in presence of 33P-ATP by ProQinase assay relative to control.
Assay [5] concerns the target Receptor tyrosine-protein kinase erbB-2 (Homo sapiens) (UniProt P04626). Description: Inhibition of human ERBB2 assessed as residual activity at 1 uM using polyEY as substrate in presence of 33P-ATP by ProQinase assay relative to control.
Assay [6] deals with T1, Tyrosine-protein kinase Tec (Homo sapiens) (UniProt P42680).
T1 sequence (whole entry): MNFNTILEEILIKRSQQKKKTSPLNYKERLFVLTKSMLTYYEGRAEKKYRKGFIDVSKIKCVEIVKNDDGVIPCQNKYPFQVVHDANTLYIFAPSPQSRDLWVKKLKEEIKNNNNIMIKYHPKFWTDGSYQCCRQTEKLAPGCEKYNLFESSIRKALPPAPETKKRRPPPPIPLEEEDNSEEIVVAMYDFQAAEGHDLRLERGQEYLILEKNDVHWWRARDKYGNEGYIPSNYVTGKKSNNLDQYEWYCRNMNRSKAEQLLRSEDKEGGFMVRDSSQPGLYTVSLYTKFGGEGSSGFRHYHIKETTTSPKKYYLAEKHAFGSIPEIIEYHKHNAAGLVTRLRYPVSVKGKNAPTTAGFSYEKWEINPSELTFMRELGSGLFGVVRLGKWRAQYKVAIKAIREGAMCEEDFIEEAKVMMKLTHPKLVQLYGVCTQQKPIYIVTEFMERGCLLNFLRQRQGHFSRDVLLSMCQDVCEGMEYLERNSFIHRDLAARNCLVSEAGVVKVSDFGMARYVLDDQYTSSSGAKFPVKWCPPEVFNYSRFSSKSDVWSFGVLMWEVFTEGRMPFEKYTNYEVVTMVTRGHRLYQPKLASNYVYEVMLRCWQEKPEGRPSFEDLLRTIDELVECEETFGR
Put plainly: Inhibition of human TEC assessed as residual activity at 1 uM using polyEY as substrate in presence of 33P-ATP by ProQinase assay relative to control.

Assay [7] addresses Mitogen-activated protein kinase kinase kinase kinase 5 (Homo sapiens) (UniProt Q9Y4K4). Description: Inhibition of MAP4K5 (unknown origin) assessed as remaining activity at 1 uM by Kinome scan method relative to control.
The subject of assay [8] is Mus musculus. Description: In vivo anti-inflammatory activity in Gal/LPS induced mouse assessed as inhibition in TNF-alpha release at 3 mg/kg, po administered for 1 hrs relative to control. It counts as functional.
The target in assay [9] is Ribosomal protein S6 kinase alpha-3 (Homo sapiens) (UniProt P51812). Put plainly: Inhibition of human RPS6KA3 assessed as residual activity at 1 uM using bio-4xCHKT as substrate in presence of 33P-ATP by ProQinase assay relative to control.
In assay [10] the target is Death-associated protein kinase 3 (Homo sapiens) (UniProt O43293). Put plainly: Inhibition of human DAPK3 assessed as residual activity at 1 uM using RBER-GSK3 as substrate in presence of 33P-ATP by ProQinase assay relative to control.
Assay [11] addresses Casein kinase I isoform gamma-2 (Homo sapiens) (UniProt P78368). Description: Inhibition of CSNK1G2 (unknown origin) assessed as remaining activity at 1 uM by Kinome scan method relative to control.
For assay [12], the target named is Dual specificity mitogen-activated protein kinase kinase 1 (Homo sapiens) (UniProt Q02750). Put plainly: Inhibition of human MEK1 assessed as residual activity at 1 uM using ERK2-KR as substrate in presence of 33P-ATP by ProQinase assay relative to control.
In assay [13] the test system is Hepatocyte growth factor receptor (Homo sapiens), P08581 [Y1235D]. Description: Inhibition of MET Y1235D mutant (unknown origin) assessed as remaining activity at 1 uM by Kinome scan method relative to control.
The test system of assay [14] is Tyrosine-protein kinase ABL1 (Homo sapiens), P00519 [M351T]. Description: Inhibition of ABL1 M351T mutant (unknown origin) assessed as remaining activity at 1 uM by Kinome scan method relative to control.
In assay [15] the target is Mitogen-activated protein kinase kinase kinase 2 (Homo sapiens) (UniProt Q9Y2U5). Put plainly: Inhibition of human MEKK2 assessed as residual activity at 1 uM using casein as substrate in presence of 33P-ATP by ProQinase assay relative to control.
The target of assay [16] is Protein kinase C iota type (Homo sapiens) (UniProt P41743). Put plainly: Inhibition of human PKCiota assessed as residual activity at 1 uM using 3xChocktide-PKC(19-31) as substrate in presence of 33P-ATP by ProQinase assay relative to control.
Assay [17] addresses Mitogen-activated protein kinase kinase kinase 7 (Homo sapiens) (UniProt O43318). Put plainly: Inhibition of TAK1 (unknown origin) assessed as remaining activity at 1 uM by Kinome scan method relative to control.
Assay [18] concerns the target Dual specificity protein kinase CLK2 (Homo sapiens) (UniProt P49760). Description: Inhibition of CLK2 (unknown origin) assessed as remaining activity at 1 uM by Kinome scan method relative to control.
In assay [19] the target is SRSF protein kinase 3 (Homo sapiens) (UniProt Q9UPE1). Description: Inhibition of human STK23 assessed as residual activity at 1 uM using RBER-CHKtide as substrate in presence of 33P-ATP by ProQinase assay relative to control.
Assay [20] deals with Focal adhesion kinase 1 (Homo sapiens) (UniProt Q05397). Put plainly: Inhibition of FAK (unknown origin) assessed as remaining activity at 1 uM by Kinome scan method relative to control.
Assay [21] concerns the target Serine/threonine-protein kinase Nek11 (Homo sapiens) (UniProt Q8NG66). Put plainly: Inhibition of human NEK11 assessed as residual activity at 1 uM using MBP as substrate in presence of 33P-ATP by ProQinase assay relative to control.
In assay [22] the target is Dual specificity tyrosine-phosphorylation-regulated kinase 4 (Homo sapiens) (UniProt Q9NR20). Put plainly: Inhibition of human DYRK4 assessed as residual activity at 1 uM using RBER-CHKtide as substrate in presence of 33P-ATP by ProQinase assay relative to control.
For assay [23], the system named is Receptor-type tyrosine-protein kinase FLT3 (Homo sapiens), P36888 [UNDEFINED MUTATION]. Put plainly: Inhibition of human […] mutant assessed as residual activity at 1 uM using Poly(Ala,Glu,Lys,Tyr)6:2:5:1 as substrate in presence of 33P-ATP by ProQinase assay relative to control.

Dual specificity protein kinase CLK2 (Homo sapiens), sequence (P49760 whole entry, looked up): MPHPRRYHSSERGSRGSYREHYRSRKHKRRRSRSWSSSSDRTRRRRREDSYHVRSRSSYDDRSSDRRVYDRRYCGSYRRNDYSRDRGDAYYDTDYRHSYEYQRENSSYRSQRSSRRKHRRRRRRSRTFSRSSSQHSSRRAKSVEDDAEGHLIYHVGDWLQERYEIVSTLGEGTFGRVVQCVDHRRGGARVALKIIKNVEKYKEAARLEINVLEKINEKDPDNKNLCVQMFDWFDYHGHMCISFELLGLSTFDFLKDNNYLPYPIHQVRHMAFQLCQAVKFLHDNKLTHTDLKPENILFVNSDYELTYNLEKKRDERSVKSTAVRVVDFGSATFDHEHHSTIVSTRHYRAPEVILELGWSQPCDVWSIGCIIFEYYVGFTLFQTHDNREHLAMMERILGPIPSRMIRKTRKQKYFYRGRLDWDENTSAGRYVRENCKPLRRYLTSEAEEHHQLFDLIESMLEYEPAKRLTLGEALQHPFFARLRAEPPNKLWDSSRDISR
Serine/threonine-protein kinase PLK3 (Homo sapiens), sequence (Q9H4B4 whole entry, looked up): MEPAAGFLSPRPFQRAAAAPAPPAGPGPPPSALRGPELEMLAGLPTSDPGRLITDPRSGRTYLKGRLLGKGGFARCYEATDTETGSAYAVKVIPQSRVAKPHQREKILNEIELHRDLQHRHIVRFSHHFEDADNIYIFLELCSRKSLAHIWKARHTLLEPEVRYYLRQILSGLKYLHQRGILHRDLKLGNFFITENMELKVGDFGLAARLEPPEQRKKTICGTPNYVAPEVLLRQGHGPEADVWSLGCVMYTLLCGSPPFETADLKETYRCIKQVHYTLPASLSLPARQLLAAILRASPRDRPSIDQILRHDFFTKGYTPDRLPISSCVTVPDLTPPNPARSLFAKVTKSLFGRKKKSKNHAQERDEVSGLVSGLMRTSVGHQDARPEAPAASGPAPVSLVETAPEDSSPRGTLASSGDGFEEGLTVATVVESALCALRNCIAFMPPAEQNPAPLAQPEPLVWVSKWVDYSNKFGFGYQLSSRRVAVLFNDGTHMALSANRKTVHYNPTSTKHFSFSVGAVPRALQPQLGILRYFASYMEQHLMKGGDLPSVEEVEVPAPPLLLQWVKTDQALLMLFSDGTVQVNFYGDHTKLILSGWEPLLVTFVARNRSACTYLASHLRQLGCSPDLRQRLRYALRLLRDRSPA
Serine/threonine-protein kinase Nek11 (Homo sapiens), sequence (Q8NG66 whole entry): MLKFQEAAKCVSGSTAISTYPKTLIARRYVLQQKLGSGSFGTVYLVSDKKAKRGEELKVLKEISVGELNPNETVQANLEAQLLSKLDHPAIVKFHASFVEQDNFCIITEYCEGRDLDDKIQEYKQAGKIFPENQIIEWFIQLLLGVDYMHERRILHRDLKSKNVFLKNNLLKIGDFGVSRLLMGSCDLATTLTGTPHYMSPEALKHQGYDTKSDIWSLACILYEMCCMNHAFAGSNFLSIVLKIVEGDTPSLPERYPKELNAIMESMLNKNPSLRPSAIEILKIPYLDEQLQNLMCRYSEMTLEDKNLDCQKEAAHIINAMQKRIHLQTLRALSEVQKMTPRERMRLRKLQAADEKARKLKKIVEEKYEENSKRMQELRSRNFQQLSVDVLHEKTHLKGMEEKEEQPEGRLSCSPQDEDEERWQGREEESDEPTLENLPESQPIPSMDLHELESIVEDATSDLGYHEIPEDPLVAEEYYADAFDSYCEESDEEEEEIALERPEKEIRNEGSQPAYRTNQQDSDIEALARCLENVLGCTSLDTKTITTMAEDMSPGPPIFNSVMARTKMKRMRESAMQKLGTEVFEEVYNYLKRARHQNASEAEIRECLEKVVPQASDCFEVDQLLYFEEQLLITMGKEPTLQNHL
Focal adhesion kinase 1 (Homo sapiens), sequence (Q05397 2-1052 limits assumed): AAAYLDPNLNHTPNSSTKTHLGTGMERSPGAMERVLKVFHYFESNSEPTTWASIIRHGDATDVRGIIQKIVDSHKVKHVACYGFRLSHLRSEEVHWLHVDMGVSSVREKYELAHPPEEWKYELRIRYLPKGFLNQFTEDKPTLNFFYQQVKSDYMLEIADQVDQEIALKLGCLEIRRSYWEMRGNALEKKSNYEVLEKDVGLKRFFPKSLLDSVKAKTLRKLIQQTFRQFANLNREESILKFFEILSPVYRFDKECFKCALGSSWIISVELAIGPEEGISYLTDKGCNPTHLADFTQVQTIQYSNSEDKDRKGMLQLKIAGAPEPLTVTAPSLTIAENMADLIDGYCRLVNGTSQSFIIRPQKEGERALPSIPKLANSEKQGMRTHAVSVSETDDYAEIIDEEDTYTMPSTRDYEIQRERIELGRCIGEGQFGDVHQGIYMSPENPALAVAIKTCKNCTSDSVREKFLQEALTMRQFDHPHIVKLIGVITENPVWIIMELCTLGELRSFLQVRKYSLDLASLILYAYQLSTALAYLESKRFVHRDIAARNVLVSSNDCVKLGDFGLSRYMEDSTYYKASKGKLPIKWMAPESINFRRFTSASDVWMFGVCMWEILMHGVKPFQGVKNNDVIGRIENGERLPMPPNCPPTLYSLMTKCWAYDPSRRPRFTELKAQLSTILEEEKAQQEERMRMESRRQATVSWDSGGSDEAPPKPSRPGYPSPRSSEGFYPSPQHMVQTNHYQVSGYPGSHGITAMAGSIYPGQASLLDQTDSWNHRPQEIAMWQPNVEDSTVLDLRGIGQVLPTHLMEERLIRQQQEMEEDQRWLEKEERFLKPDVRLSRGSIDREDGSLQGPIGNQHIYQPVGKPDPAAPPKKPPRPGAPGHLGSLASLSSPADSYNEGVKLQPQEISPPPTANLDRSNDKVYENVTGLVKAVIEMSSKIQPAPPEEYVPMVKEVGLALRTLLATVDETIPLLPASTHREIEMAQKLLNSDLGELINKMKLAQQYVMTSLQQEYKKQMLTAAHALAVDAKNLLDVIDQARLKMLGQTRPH
Ribosomal protein S6 kinase alpha-3 (Homo sapiens), sequence (P51812 whole entry): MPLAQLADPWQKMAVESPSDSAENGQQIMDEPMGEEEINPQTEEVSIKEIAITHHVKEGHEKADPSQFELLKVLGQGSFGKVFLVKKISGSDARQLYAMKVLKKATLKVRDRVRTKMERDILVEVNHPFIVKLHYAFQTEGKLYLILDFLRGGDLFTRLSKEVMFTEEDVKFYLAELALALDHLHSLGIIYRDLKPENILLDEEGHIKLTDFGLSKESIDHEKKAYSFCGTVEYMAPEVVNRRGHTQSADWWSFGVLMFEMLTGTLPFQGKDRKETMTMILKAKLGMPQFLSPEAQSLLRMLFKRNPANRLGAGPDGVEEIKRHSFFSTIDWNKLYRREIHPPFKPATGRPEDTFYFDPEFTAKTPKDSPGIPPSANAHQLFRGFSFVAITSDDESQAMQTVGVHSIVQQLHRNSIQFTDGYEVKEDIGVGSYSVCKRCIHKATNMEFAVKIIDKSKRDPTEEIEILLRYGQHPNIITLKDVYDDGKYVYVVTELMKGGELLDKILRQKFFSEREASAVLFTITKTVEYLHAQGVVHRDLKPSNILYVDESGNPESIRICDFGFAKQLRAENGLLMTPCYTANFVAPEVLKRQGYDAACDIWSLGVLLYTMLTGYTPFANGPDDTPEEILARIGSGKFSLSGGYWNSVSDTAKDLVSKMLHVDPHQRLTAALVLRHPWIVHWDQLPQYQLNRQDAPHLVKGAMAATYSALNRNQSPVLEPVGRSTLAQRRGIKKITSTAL
Dual specificity tyrosine-phosphorylation-regulated kinase 4 (Homo sapiens), sequence (Q9NR20 whole entry): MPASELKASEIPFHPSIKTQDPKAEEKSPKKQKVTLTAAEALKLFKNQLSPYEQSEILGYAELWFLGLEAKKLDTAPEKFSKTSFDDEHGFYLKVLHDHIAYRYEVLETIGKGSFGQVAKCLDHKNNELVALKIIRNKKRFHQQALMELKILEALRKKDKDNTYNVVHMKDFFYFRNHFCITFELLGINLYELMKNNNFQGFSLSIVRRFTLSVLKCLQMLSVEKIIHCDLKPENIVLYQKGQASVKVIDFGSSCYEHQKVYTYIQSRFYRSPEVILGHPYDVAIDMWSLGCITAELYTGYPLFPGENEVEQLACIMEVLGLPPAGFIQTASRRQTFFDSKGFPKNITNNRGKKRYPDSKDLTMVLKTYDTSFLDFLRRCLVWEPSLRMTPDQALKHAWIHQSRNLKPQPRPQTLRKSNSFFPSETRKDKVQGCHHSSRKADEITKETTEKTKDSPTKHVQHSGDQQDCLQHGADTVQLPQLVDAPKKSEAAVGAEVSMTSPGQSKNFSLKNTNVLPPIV
Mitogen-activated protein kinase kinase kinase 7 (Homo sapiens), sequence (O43318 whole entry): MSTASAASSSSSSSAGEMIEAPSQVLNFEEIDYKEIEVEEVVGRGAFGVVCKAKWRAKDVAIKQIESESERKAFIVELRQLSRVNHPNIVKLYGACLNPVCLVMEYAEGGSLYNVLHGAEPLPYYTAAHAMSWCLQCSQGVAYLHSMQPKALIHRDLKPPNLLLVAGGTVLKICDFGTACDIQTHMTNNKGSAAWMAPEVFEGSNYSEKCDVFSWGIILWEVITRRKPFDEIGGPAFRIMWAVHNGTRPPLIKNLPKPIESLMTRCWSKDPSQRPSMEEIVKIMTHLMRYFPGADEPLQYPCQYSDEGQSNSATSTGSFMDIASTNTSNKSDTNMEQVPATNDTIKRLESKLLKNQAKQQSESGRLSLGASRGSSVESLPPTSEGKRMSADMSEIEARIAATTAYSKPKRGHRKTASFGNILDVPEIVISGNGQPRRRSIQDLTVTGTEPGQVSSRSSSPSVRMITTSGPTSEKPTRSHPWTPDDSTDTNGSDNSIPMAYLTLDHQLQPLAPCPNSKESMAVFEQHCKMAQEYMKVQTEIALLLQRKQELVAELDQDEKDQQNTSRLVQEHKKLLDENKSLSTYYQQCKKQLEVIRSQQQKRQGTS

Consider `O=C1c2ccc(Nc3ccc(F)cc3F)cc2CCc2ccc(OC[C@H](O)CO)cc21` [Skepinone-L], for which the Activity was 36.3 pg/mL with Mus musculus [1]; 99% in assay [2]; 92% in [3]; 93% in [4]; 91% in assay [5]; 115% in assay [6]. Moreover, the Activity in assay [7] worked out at 100%; in assay [9], 89%; in [10] it was 89%; in assay [11] it was 100%; in [12], 79%; in assay [13], 97%. The Activity in assay [14] stood at 100%; in [15], 89%; in assay [16] it was 91%; in assay [17], 100%; in assay [18] it was 90%; in [19], 96%. Further, the Activity in [20] is 100%; in assay [21] it was 113%; in assay [22], 93%; in [23] it was 101%. The inhibition in vivo at 3 mg/kg with Mus musculus [8] was determined as 77%.

Usually inhibition in vivo stands for the change of the read-out against control, counted positive when it falls.
